Test results from patent EP2977452A2, “METHODS OF TREATMENT AND PREVENTION OF NEURODEGENERATIVE DISEASES AND DISORDERS” (THOMAS JEFFERSON UNIVERSITY, priority 2007, dated 2008).
Entries after “also recorded” stand apart in the source; their conditions may differ.

Key:
Format in all cases: in vivo
[1] = system: blood brain barrier (BBB); experiment: BBB leakage in brain of DM/HC pig model (IHC for pig immunoglobulin); settings: DM/HC pigs
Protocol: (§1) Animal model: A diabetic/diabetic hypercholestrolemic pig model (DM/HC) was developed that mimics human-like atherosclerosis. Farm pigs weighing 25-30 kg and aged ∼4 months were made diabetic with a single intravenous injection of 125 mg/kg of streptozotocin (Sicor Pharmaceuticals, Irvine, CA). After stabilization for 1-2 weeks, the animals with elevated levels of plasma glucose (>150 mg/dl) were fed with atherogenic (high-fat) diet as shown in Table 1 (Animal Specialties, Quakertown, PA) to achieve a cholesterol level of approximately 250-800 mg/dl. Table 1. Diet for 2.0% cholesterol diet the components are:
(§2) At one month after stabilization of choleresterol at 250-800mg/dl, the animals were randomized into two experimental groups, DM/HC (hyperglycemia and hypercholesterolemia) group with no treatment and treatment group (10 mg/kg/day of SB-480848, also referred to as 1-(N-(2-(diethylamino)ethyl)-N-(4-(4-trifluoromethylphenyl)benzyl)-aminocarbonylmethyl)-2-(4-fluorobenzyl)thio-5,6-trimethylenepyrimidin-4-one). The animals were sacrificed at 6-month after the randomization. The animal protocol has been approved by the Institutional Animal Care and Use Committee of University of Pennsylvania.
(§3) Two diabetic/hypercholesterolemic groups were evaluated: 1. DM/HC group and 2. DM/HC animals receiving Lp-PLA2 inhibitors. The experiments included: the control group (DM/HC group - 17 pigs) and the experimental group (DM/HC animals receiving LP-PLA2 inhibitors - 20 pigs). In addition blood cholesterol levels were maintained between 300 and 800 mg/dl in experimental animals, this range having been determined to provide a better test model. Blood cholesterol levels were monitored in all animals on a bimonthly basis, as shown in Table 4 and adjustments were made to the fat content of the feed accordingly, as shown in Table 2. The cholesterol and lard percent were in the range of 0.5-2% and 10-25%, respectively, and all animals received feed that contained cholesterol and lard concentration within that range. Blood samples were obtained at baseline, 1 month, 3 months, and 6 months. Less than 1 ml/kg of blood were obtained each time. At the bimonthly blood cholesterol levels tests, levels of total cholesterol, LDL, HDL, VLDL and triglycerides, blood glucose, Lp-PLA2 and […] (PBMCs) were tested (see Table 4).
(§4) Daily dosing began on Day 29, at which time each test animal was given a daily dose of 10 mg/kg SB-480848 (given as bolus equivalent in dog food). Animals were NPO from midnight the night before. Animals were euthanized on Day 196 and tissues harvested immediately.
(§5) Brain tissue preparation. The entire brain was removed within one hour after animals were euthanized. The right hemisphere was fixed in 10% formalin for at least one week. […]

[2] = system: Abeta-42; experiment: Abeta-42 accumulation in brain of DM/HC pig model (IHC); settings: DM/HC pigs
Protocol: as §1, §2, §3, §4, §5

[3] = system: glial cells; experiment: Glial cell (astrocyte) activation in brain of DM/HC pig model (GFAP IHC); settings: DM/HC pigs treated with Lp-PLA2 inhibitor, vs non-treated
Protocol: as §1, with “are: […]” for “are:”
Two diabetic/hypercholesterolemic groups were evaluated: 1. […] In addition blood cholesterol levels were maintained between 300 and 800 mg/dl in experimental animals, this range having been determined to provide a better test model. Blood cholesterol levels were monitored in all animals on a bimonthly basis, as shown in Table 4 and adjustments were made to the fat content of the feed accordingly, as shown in Table 2. […]

[4] = Body weight and behaviour observed during the study in DM/HC pig model; settings: DM/HC pigs
Protocol: as §1, §2, §3
Domestic farm pigs, Yorkshire boars, ranging in weight between 25-35 kg were purchased from a local farm and placed in indoor housing under the care of a veterinarian. They were castrated 3-5 days in advance of the study start date. Test pigs were made diabetic by infusing one dose of streptozocin (125 mg/kg) IV in a period of 30 min. […] The blood glucose was measured using a glucometer every day before feeding for the first 14 days and then once a week. […]

[5] = 10 mg/kg/day SB-480848, n=6, vs DM/HC no treatment, 10 mg/kg/day
[6] = 10 mg/kg/day SB-480848, vs DM/HC no treatment
[7] = during the study period, compared to control non-treated animals

## CCN(CC)CCN(Cc1ccc(-c2ccc(C(F)(F)F)cc2)cc1)C(=O)Cn1c(SCc2ccc(F)cc2)nc(=O)c2c1CCC2 [Lp-PLA2 inhibitor, 1-(N-(2-(diethylamino)ethyl)-N-(4-(4-trifluoromethylphenyl)benzyl)-aminocarbonylmethyl)-2-(4-fluorobenzyl)thio-5,6-trimethylenepyrimidin-4-one]
[1]; [5]
  BBB leakage: prevents BBB leakage; also recorded: negligible
[1]; [6]
  Ig binding to neurons: no Ig binding to neurons
  Ig leakage from blood vessels: no Ig leakage from blood vessels
  dendrite collapse: no dendrite collapse
[2]; 10 mg/kg/day SB-480848, compared with non-treated animals
  sick neurons: rarely observed
[2]; [5]
  neuronal Abeta-42 immunoreactivity: prevents Abeta-42 accumulation in neurons; also recorded: no neuronal Abeta-42 immunoreactivity
[2]; [6]
  Abeta42 accumulation in vascular SMCs: prevented Abeta42 accumulation in vascular SMCs
[2]; 10 mg/kg/day SB-480848, vs DM/HC no treatment, 10 mg/kg/day
  cerebrovascular amyloidosis (arterial Abeta-42 immunostaining): little or no arterial Abeta-42 immunostaining; also recorded: minimized cerebrovascular amyloidosis
[3]
  activation of glial cells: less activation of glial cells
[4]; 10 mg/kg/day SB-480848, end of study, from a baseline of 26.9 kg, control animals 50.9 kg (baseline 30.3 kg)
  weight: 62.5 kg
[4]; [7]
  activity in the cage: increased activity in the cage
  response to feeding and handling: tended to respond more alertly to feeding and handling
  responsiveness to external stimuli: more responsive to external stimuli
